Literature values, collected in patent publication US20070232589A1, “Pharmaceutical Composition And Method For Treating Neurodegenerative Disorders” (Myriad Genetics, Incorporated, priority 2004, published 2007).
Where two headings read alike, the source gives them in different places.

Key:
Aβ42 [1] = details: transgenic mouse model
[2] = 50 mg and 100 mg doses, human subjects
Aβ42 [3] = details: CHO cells
[4] = clinical trial; rofecoxib 25 mg daily
[5] = in vivo
[6] = patients having mild cognitive impairment
[7] = in vivo excitotoxic model

Structure (SMILES): C[C@@H](C(=O)O)c1ccc(-c2ccccc2)c(F)c1 [(R)-2-(2-fluoro-4-biphenylyl)propionic acid]
- Aβ42 lowering (Aβ42 [1]): lower Aβ42
- analgesic effect [2]: produced an analgesic effect
- Aβ42 lowering (Aβ42 [3]): lower Aβ42
- inhibition of COX activity (COX): negligibly inhibits COX activity

Structure (SMILES): COc1ccc2cc([C@H](C)C(=O)O)ccc2c1 [Naproxen]
- efficacy for treating AD [4]: failed to show efficacy

Structure (SMILES): CC12CC3CC(C)(C1)CC(N)(C3)C2 [memantine]
- efficacy in treating mild-to-moderate AD [5]: showed efficacy

Structure (SMILES): CS(=O)(=O)c1ccc(C2=C(c3ccccc3)C(=O)OC2)cc1 [rofecoxib]
- prevention of development of Alzheimer's disease [6]: failed to prevent the development of Alzheimer's disease
- patients who developed AD ([6]; placebo 4.5%): 6.4%
- neuroprotection [7]: provides neuroprotection
- efficacy for treating AD [4]: failed to show efficacy
